Where two headings read alike, the source gives them in different places.
Legend:
HeLa cells [1] = experiment: sensitization to DNA damaging agents, MTT assay; type: cell-based, human; details: 1 μM C527 for 24 h, FIG. 10
Protocol: FIG. 10 is a composite figure showing that C527 sensitizes tumor cells to DNA damaging agents. HeLa cells were plated in 96-well plates and treated with 1 μM C527 for 24 h, followed by treatment with mitomycin C (MMC, 0.25 μM), camptothcin (CPT, 0.1 μM), or etoposide for 4 more days. Cell viability was assessed using the MTT assay.
HeLa cells were seeded in 96-well plate and treated with C527 for 4 more days. 20 μL MTT (Sigma) at 5 mg/mL was added to each well and cells were left at 37° C. for incubation. 4 h later, the metabolic product was dissolved in a solution containing 10% SDS, 5% isopropanol and 0.01 mol/L HCl. Optical density at 565 nm was measured in an automated plate reader. The percentage of cell survival was determined by normalizing to solvent vehicle treated cells.
Inhibitors of the FA-BRCA pathway are known to sensitize tumor cells to the cytotoxic effects of ICL-[…] agents. Specifically, it is known that proteasome inhibitors block FANCD2 monoubiquitination, perhaps through depletion of intracellular pools of free ubiquitin, resulting in inhibition of HR repair (Chirnomas D, Taniguchi T, de la Vega M, et al. Chemosensitization to cisplatin by inhibitors of the Fanconi anemia/BRCA pathway. Mol Cancer Ther. 2006; 5:952-961). The ability of C527 to sensitize pretreated human cells to MMC or to other agents was tested.

USP1/UAF1 complex = molecular target: T1, USP1/UAF1 complex (Homo sapiens, UniProt O94782, G670A/G671A); experiment: ubiquitin-AMC in vitro deubiquitination enzyme assay; type: biochemical
T1 construct: This modified full length USP1 clone was PCR amplified and subcloned into pFastBac-HT vectors; His tag (N); made in house; host or cells: Sf9 insect cells (baculovirus)
T1 sequence (O94782 whole entry G670A/G671A): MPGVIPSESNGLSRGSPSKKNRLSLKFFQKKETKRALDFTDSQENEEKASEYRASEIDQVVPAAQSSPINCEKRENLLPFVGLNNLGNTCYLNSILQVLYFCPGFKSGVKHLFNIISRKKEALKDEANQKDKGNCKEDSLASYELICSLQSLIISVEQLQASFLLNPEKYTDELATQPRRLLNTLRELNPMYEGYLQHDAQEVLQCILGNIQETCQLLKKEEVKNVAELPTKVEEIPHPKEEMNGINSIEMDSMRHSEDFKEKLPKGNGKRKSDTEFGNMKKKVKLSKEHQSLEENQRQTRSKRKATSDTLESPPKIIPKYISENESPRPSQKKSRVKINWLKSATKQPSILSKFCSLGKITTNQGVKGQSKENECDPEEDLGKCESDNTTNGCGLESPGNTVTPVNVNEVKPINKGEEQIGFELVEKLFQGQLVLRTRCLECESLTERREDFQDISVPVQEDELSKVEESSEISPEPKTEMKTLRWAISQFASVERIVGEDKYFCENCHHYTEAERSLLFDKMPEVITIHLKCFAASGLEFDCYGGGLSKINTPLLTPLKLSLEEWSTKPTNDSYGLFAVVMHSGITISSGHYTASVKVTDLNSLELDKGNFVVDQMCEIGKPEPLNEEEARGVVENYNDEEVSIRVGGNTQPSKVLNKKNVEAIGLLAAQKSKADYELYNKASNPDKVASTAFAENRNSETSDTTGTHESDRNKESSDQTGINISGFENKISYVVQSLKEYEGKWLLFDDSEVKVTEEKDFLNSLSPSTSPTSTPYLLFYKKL
T1 sequence (Q8TAF3 whole entry partner): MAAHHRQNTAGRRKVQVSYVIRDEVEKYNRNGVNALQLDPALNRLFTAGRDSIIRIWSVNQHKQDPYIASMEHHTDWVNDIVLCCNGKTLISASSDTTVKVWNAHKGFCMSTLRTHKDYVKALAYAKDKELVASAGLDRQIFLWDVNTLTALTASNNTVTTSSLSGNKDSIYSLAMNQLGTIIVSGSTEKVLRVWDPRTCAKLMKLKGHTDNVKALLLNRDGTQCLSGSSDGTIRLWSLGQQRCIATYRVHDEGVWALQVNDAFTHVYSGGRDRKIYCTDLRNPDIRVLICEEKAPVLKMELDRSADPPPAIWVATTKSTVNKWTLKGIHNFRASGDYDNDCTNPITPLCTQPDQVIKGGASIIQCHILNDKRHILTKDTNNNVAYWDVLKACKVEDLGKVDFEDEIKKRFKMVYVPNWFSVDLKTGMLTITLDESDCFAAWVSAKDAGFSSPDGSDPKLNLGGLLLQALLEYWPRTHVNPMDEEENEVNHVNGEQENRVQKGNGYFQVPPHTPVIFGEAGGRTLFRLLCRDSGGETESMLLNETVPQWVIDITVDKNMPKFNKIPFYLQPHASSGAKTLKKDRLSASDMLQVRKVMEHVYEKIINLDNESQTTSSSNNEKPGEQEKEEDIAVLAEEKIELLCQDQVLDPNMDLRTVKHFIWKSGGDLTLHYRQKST
Protocol: Purified USP1/UAF1 complex was incubated with 1 μM C527 or DMSO for indicated time, followed by the addition of Ub-AMC at 0.5 μM final concentration. The fluorescence at […] was measured to indicate the enzymatic activity of USP1. […] 5A.
The in vitro enzymatic assays were performed using purified proteins from Sf9 cells as described previously (Cohn et al.). The assays using ubiquitin-AMC (Ub-7-amido-4-methylcoumarin; Boston Biochem) as substrate was carried out in a reaction buffer containing 20 mM HEPES-KOH (pH 7.8), 20 mM NaCl, 0.1 mg/ml ovalbumin, 0.5 mM EDTA and 10 mM dithiothreitol. The fluorescence was measured by FluoStar Galaxy Fluorometer (BMG Labtech). For the Ub-vinylsulfone (VS) assay, the proteins were incubated with Ub-VS at 0.5 μM final concentration for 1 h at 30° C., followed by the immunoblotting analysis.
In order to develop a highly sensitive assay with easy readout for high throughput detection, the fluorogenic compound Ubiquitin-7-amido-4-methylcoumarin (AMC-Ub, Boston Biochem) was used as a substrate for USP1/UAF1 enzyme complex. USP1 catalyzes the cleavage of AMC-Ub, releasing free AMC moiety, which leads to increase in fluorescence emission at 460 nm (λex=380 nm). Dang et al. (1998) Biochemistry 37:1868-79. […] Initial enzyme assay development was performed in 96-well plates with 100 μl reaction volume containing 20 mM HEPES-KOH, 0.1 mg/ml ovalbumin (Sigma), 0.5 mM EDTA, and 10 mM DTT. 2.5 nM USP1/UAF1 enzyme complex was mixed with the reaction buffer, incubated at 37° C. for 10 minutes and then 0.3 μM AMC-Ub was added. Fluorescence was measured using a Fluostar Galaxy Fluorometer (BMG Labtech Inc.).
Hits from the initial screening were analyzed further in secondary screening. In this step, the compounds were re-tested for inhibition using the AMC-Ub in vitro enzyme assay. After reconfirming inhibition, different concentration range of the inhibitors were tested to show dose dependency of inhibition and IC50 calculation.

native USP1 = molecular target: T2, native USP1 (Homo sapiens, UniProt O94782); experiment: HA-Ub-VS labelling of native USP1 in HeLa cell extracts; type: biochemical; details: HeLa cell extracts pretreated 4 h, then Ub-VS 40 min at 30° C.; FIG. 7
T2 construct: endogenous in cells; host or cells: HeLa cell extract
T2 sequence (O94782 whole entry): as the sequence (O94782 whole entry G670A/G671A) above, with A670G, A671G counted along it
T2 sequence (Q8TAF3 whole entry partner): as the sequence (Q8TAF3 whole entry partner) above
Protocol: FIG. 7 is a composite figure depicting preferential inhibition of the activity of native USP1/UAF1 by C527. HeLa cell extracts were incubated with ubiquitin-aldehyde (Ub-Ald, 5 μM) or C527 at indicated concentrations for 4 h, followed by the addition of 0.5 μM Ub-Vs for 40 min. The reaction was split into two aliquots and subjected to immunoblotting for HA or USP1, respectively.
The ability of C527 to inhibit the deubiquitinating activity of native USP1 complexes derived from human cells was determined next (FIG. 7). For this purpose, the HA-tagged ubiquitin-VS, an affinity reagent known to covalently modify and trap active DUB enzymes in cell extracts was used. Cell extracts prepared from HeLa cells were pretreated with increasing concentrations of C527 for 4 h, followed by the incubation with Ub-VS for 40 min at 30° C. The enzymatic activity of endogenous DUBs was indicated by the conjugation of Ub-VS, detected as HA-labeling (see FIG. 7, high molecular weight bands). […] Ub-VS conjugation was inhibited by ubiquitin-aldehyde (Ub-Ald), a non-specific inhibitor of DUBs (lane 3).

HeLa cells [2] = experiment: clonogenic assay; type: cell-based, human; details: FIG. 9B
Protocol: FIG. 9 is a composite figure showing that C527 causes DNA damage and inhibits the proliferation of tumor cells. […] HeLa cells were treated with C527 at the indicated concentrations for 24 hrs, and cells were subjected to immunoblotting. Mitomycin C (MMC, 1 μM) was used as a positive control. […] HeLa cells were seeded in a 6-well plate and treated with C527 at the indicated concentrations. Cell proliferation was evaluated using a clonogenic assay.
Cells were seeded in 6-well plate at 500 cells per well followed by treatment with C527. Colonies were allowed to grow for 7-10 days, fixed with a solution containing 10% Methanol and 10% acetic acid at room temperature for 15 min and then stained with 1% crystal violet in methanol. Colonies of >50 cells were counted, and the surviving fraction was calculated and normalized to untreated control.
Impaired HR integrity may lead to genotoxic effect. Genotoxic agents are known to directly activate DNA damage response pathways, resulting in FANCD2 monoubiquitination and CHK1 phosphorylation (FIG. 9A).

Compound: O=C1c2ccccc2C(=O)c2oc(-c3ccc(F)cc3)nc21 [Formula IV (527)]
- sensitization of cells to CPT (HeLa cells [1]; then CPT 0.1 μM for 4 more days): sensitized cells
- sensitization of cells to MMC (HeLa cells [1]; then MMC 0.25 μM for 4 more days): sensitized cells
- sensitization of cells to etoposide (HeLa cells [1]; then etoposide for 4 more days): not to etoposide
- IC50 (USP1/UAF1 complex; 4 hour preincubation, AMC-Ub in vitro enzyme assay, read-out: IC50): 134 nM
- inhibition of DUB activity (fluorescence) with pretreatment time (USP1/UAF1 complex; single dose 1 uM, variable time periods, FIG. 5A): serial increase in inhibition of DUB activity
- DUB activity with increasing dose (USP1/UAF1 complex; treatment for 2 h, 0.5 to 2 μM, FIG. 5B): dose-dependent decrease in DUB activity
- IC50 (USP1/UAF1 complex; ubiquitin-AMC substrate, FIG. 5C, read-out: IC50 of C527 for the USP1/UAF1 complex): 880 ± 30 nM
- USP1 binding to Ub-VS (native USP1): did inhibit USP1 binding to Ub-VS in the same reaction in a dose-dependent manner
- cell proliferation (HeLa cells [2]): inhibited cell proliferation

Source: patent publication US10653676B2 (Dana-Farber Cancer Institute, Inc., priority 2010, dated 2020)
